In assay [1] the target is T1, PBP3 from Pseudomonas aeruginosa (PAO1) (Pseudomonas aeruginosa, UniProt G3XD46).
T1 construct: made in house
The assay can be described thus: Bocillin-FL fluorescence polarization competition binding, P. aeruginosa PBP3. Particulars: Binding affinity to P. aeruginosa PBP3; fluorescence polarization competition binding assay using Bocillin-FL; read-out: P. aeruginosa PBP3 Potency. The gist of the method: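 Purified PBP was preincubated with inhibitor (E. coli PBP3 1.5 μM, 30 min; P. aeruginosa PBP3 0.75 μM, A. baumannii PBP3 0.2 μM and PBP1a 1 μM, 15 min), then Bocillin-FL (0.1 μM; 0.05 μM for PBP1a) added and FP read up to 60 min. EC50 = 50% loss of bound probe.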
In general terms: Fluorescence polarisation rises when a labelled molecule tumbles more slowly, as on binding a larger partner.

A further assay deals with T2, A. baumannii PBP1a (Acinetobacter baumannii, UniProt A0ABX6CK30).
T2 sequence (A0ABX6CK30 1-851): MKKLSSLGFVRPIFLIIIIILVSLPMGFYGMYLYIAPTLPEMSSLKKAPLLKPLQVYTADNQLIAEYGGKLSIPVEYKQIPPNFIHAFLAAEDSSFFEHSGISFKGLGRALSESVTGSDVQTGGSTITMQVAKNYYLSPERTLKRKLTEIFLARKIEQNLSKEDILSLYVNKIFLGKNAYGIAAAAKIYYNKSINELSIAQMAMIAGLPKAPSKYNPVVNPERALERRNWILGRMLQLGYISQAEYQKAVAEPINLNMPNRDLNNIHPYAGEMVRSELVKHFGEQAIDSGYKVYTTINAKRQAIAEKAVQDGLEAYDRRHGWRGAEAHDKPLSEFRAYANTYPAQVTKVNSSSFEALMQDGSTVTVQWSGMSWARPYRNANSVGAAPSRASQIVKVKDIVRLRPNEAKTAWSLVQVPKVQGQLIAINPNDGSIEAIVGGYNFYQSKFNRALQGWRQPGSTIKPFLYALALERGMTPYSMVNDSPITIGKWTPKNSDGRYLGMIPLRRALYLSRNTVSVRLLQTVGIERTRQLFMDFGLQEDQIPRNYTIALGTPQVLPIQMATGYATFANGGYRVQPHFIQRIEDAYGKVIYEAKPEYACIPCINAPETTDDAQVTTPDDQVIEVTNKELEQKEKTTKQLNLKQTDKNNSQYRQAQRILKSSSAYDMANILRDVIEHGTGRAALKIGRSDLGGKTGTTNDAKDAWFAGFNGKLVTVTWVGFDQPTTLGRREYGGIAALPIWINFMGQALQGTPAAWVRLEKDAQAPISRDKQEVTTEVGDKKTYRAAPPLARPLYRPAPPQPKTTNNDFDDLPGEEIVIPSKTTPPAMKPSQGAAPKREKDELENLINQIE
The assay can be described thus: Bocillin-FL competition binding via gel filtration, A. baumannii PBP1a. Particulars: competition binding assay using Bocillin-FL via gel filtration; read-out: A. baumannii PBP1a Potency. The procedure, abridged: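 Competitive equilibrium binding; reporter Bocillin-FL. PBP + inhibitor (titration) pre-incubated → Bocillin-FL, 15 min → gel filtration → fluorescence. EC50 from Hill fit of fraction bound vs [inhibitor].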
For orientation: SEC sorts molecules by how far they enter the pores of the column.

Assay [2] has as its system P. aeruginosa (ΔmexAB-oprM). Nature of the assay: Broth microdilution MIC in iron-depleted CAMHB (IDM). The note with it: Pseudomonas aeruginosa, read-out: Minimum inhibitory concentration, P. aeruginosa ΔmexAB-oprM. The format is cell-based. A general note: Broth dilution looks for growth in wells or tubes with falling amounts of substance.
A further assay has as its system A. baumannii CDC-0045. Nature of the assay: microbe, parasite or virus in culture. The format is cell-based. Particulars: Acinetobacter baumannii.
The subject of assay [3] is B. thailandensis ATCC 700388. Nature of the assay: microbe, parasite or virus in culture. The format is cell-based. Particulars: Burkholderia thailandensis, ATCC700388, read-out: Minimum inhibitory concentration (MIC), B. thailandensis ATCC 700388.
[4] abbreviates: CDC0045, read-out: MIC, A. baumannii CDC-0045.
[5] abbreviates: CDC0045, read-out: Minimum inhibitory concentration (MIC), A. baumannii CDC-0045.

≈ marks a conversion by molar mass, not a printed value. Like-named read-outs stand apart in the source and are kept apart here.

T1 sequence (G3XD46 whole entry): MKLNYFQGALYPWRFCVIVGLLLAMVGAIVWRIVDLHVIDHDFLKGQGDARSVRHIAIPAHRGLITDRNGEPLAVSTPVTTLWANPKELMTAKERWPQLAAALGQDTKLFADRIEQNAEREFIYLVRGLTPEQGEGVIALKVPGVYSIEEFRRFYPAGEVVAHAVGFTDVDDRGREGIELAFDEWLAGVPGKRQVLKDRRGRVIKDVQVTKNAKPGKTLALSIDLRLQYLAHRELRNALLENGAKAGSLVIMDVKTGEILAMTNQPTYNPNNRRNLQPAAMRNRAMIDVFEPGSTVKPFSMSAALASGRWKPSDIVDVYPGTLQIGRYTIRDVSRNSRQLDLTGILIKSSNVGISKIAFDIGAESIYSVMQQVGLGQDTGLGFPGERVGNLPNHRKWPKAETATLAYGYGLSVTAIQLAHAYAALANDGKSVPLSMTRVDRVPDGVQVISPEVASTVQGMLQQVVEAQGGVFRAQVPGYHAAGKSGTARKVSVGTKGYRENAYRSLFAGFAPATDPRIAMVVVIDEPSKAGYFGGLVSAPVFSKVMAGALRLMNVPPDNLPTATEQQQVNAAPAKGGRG

In the case of `O=C(O)c1c(F)ccc2c1OB(O)[C@@H](NC(=O)[C@H](NC(=O)N1CCN(Cc3ccc(O)c(O)c3Cl)C(=O)C1=O)c1ccc(P(=O)(O)O)cc1)C2` (single isomer, unassigned) [Example 160], the IC50 in assay [1] was less than 10 µM. On A. baumannii PBP1a, the EC50 is less than 10 µM. Besides, the MIC in assay [2] (iron-depleted CAMHB (IDM), […]) was less than 1 µg/mL; in the assay on A. baumannii CDC-0045 (setting [4]), less than 1 µg/mL; in assay [3], less than 1 µg/mL.
Turning to `O=C(O)c1c(F)ccc2c1OB(O)[C@@H](NC(=O)[C@H](NC(=O)N1CCN(Cc3ccc(O)c(O)c3Cl)C(=O)C1=O)c1cccc(P(=O)(O)O)c1)C2` (single isomer, unassigned) [Example 163], in assay [1], the IC50 is less than 10 µM. On A. baumannii PBP1a, the EC50 is less than 10 µM. The MIC was less than 1 µg/mL in assay [2] (iron-depleted CAMHB (IDM), […]); less than 1 µg/mL in the assay with A. baumannii CDC-0045 (setting [4]); less than 1 µg/mL in assay [3].
As to `O=C(NCCS(=O)(=O)N1CCN(C(=O)N[C@@H](C(=O)N[C@H]2Cc3ccc(F)c(C(=O)O)c3OB2O)c2ccc(P(=O)(O)O)cc2)C1=O)c1ccc(O)c(O)c1Cl` (single isomer, unassigned) [Example 168], the IC50 in assay [1] was less than 10 µM. At A. baumannii PBP1a, the EC50 is 50 to 250 µM. In addition, the MIC in assay [2] (iron-depleted CAMHB (IDM), […]) was 8 to 16 µg/mL (≈ 9.66 to 19.3 µM); in the assay on A. baumannii CDC-0045 (setting [4]), 2 to 4 µg/mL (≈ 2.42 to 4.83 µM); in assay [3], less than 1 µg/mL.
In the case of `O=C(NCCCS(=O)(=O)N1CCN(C(=O)N[C@H](C(=O)N[C@H]2Cc3ccc(F)c(C(=O)O)c3OB2O)c2ccc(P(=O)(O)O)cc2)C1=O)c1ccc(O)c(O)c1Cl` (single isomer, unassigned) [Example 169], in assay [1], the IC50 was greater than 250 µM. For the same compound, the MIC in assay [2] (iron-depleted CAMHB (IDM), […]) was greater than 128 µg/mL; in the assay with A. baumannii CDC-0045 (setting [4]), greater than 128 µg/mL; in assay [3], greater than 128 µg/mL.
Turning to `O=C(O)c1c(F)ccc2c1OB(O)[C@@H](NC(=O)[C@H](NC(=O)N1CCN(C3CCN(C(=O)Nc4ccc(O)cc4)CC3)C(=O)C1=O)c1cc(F)c(O)c(O)c1Cl)C2` (single isomer, unassigned) [Example 426], the IC50 in assay [1] is less than 10 µM. For the same compound, the EC50 on A. baumannii PBP1a is 10 to 50 µM. Also, the MIC in assay [2] (iron-depleted CAMHB (IDM), […]) is less than 1 µg/mL; in the assay with A. baumannii CDC-0045 (setting [4]), 2 to 4 µg/mL (≈ 2.5 to 4.99 µM); in assay [3] it was less than 1 µg/mL.
`O=C(O)c1c(F)ccc2c1OB(O)[C@@H](NC(=O)[C@H](NC(=O)N1CCN(C3CCN(C(=O)c4cccc(O)c4)CC3)C1=O)c1cc(F)c(O)c(O)c1Cl)C2` (single isomer, unassigned) [Example 430]: in assay [1], the IC50 is less than 10 µM. The EC50 on A. baumannii PBP1a is less than 10 µM. The MIC in assay [2] (iron-depleted CAMHB (IDM), […]) is less than 1 µg/mL; in the assay with A. baumannii CDC-0045 (setting [4]), 8 to 16 µg/mL (≈ 10.6 to 21.1 µM); in assay [3], less than 1 µg/mL.
Take `O=C(O)c1c(F)ccc2c1OB(O)[C@@H](NC(=O)[C@H](NC(=O)N1CCN(C3CCN(C(=O)c4cccc(O)c4F)CC3)C1=O)c1cc(F)c(O)c(O)c1Cl)C2` (single isomer, unassigned) [Example 431]: in assay [1], the IC50 was less than 10 µM. On A. baumannii PBP1a, the EC50 is less than 10 µM. Further, the MIC was less than 1 µg/mL in assay [2] (iron-depleted CAMHB (IDM), […]); less than 1 µg/mL in the assay on A. baumannii CDC-0045 (setting [4]); less than 1 µg/mL in assay [3].
Take `O=C(O)c1c(F)ccc2c1OB(O)[C@@H](NC(=O)[C@H](NC(=O)N1CCN(C3CCN(C(=O)c4cccc(O)c4Cl)CC3)C1=O)c1cc(F)c(O)c(O)c1Cl)C2` (single isomer, unassigned) [Example 432]: in assay [1], the IC50 is less than 10 µM. On A. baumannii PBP1a, the EC50 was less than 10 µM. Further, the MIC in assay [2] (iron-depleted CAMHB (IDM), […]) was less than 1 µg/mL; with A. baumannii CDC-0045 (setting [4]), less than 1 µg/mL; in assay [3], less than 1 µg/mL.
For the compound `O=C(O)c1c(F)ccc2c1OB(O)[C@@H](NC(=O)[C@H](NC(=O)N1CCN(C3CCN(C(=O)c4cc(O)ccc4F)CC3)C1=O)c1cc(F)c(O)c(O)c1Cl)C2` (single isomer, unassigned) [Example 433], in assay [1], the IC50 is less than 10 µM. Further, the EC50 at A. baumannii PBP1a was less than 10 µM. For the same compound, the MIC in assay [2] (iron-depleted CAMHB (IDM), […]) is less than 1 µg/mL; in the assay on A. baumannii CDC-0045 (setting [4]), less than 1 µg/mL; in assay [3] it was less than 1 µg/mL.
On to `O=C(O)c1c(F)ccc2c1OB(O)[C@@H](NC(=O)[C@H](NC(=O)N1CCN(C3CCN(C(=O)c4cc(O)ccc4Cl)CC3)C1=O)c1cc(F)c(O)c(O)c1Cl)C2` (single isomer, unassigned) [Example 434], for which the IC50 in assay [1] was less than 10 µM. In addition, the EC50 at A. baumannii PBP1a is less than 10 µM. In addition, the MIC in assay [2] (iron-depleted CAMHB (IDM), […]) was less than 1 µg/mL; in the assay with A. baumannii CDC-0045 (setting [4]), less than 1 µg/mL; in assay [3], less than 1 µg/mL.
Regarding `O=C(O)c1c(F)ccc2c1OB(O)[C@@H](NC(=O)[C@H](NC(=O)N1CCN(C3CCN(C(=O)c4ccc(F)c(O)c4)CC3)C1=O)c1cc(F)c(O)c(O)c1Cl)C2` (single isomer, unassigned) [Example 435], the IC50 in assay [1] was less than 10 µM. The EC50 at A. baumannii PBP1a was less than 10 µM. In addition, the MIC in assay [2] (iron-depleted CAMHB (IDM), […]) is less than 1 µg/mL; in the assay with A. baumannii CDC-0045 (setting [4]), less than 1 µg/mL; in assay [3] it was less than 1 µg/mL.
As for `O=C(O)c1c(F)ccc2c1OB(O)[C@@H](NC(=O)[C@H](NC(=O)N1CCN(C3CCN(C(=O)c4cc(O)cc(F)c4)CC3)C1=O)c1cc(F)c(O)c(O)c1Cl)C2` (single isomer, unassigned) [Example 436], the IC50 in assay [1] was less than 10 µM. In addition, the EC50 at A. baumannii PBP1a is less than 10 µM. Also, the MIC in assay [2] (iron-depleted CAMHB (IDM), […]) is less than 1 µg/mL; with A. baumannii CDC-0045 (setting [4]), less than 1 µg/mL; in assay [3], less than 1 µg/mL.
Take `O=C(O)c1c(F)ccc2c1OB(O)[C@@H](NC(=O)C(NC(=O)N1CCN(C3CCN(C(=O)Nc4ccc(F)c(O)c4F)CC3)C1=O)c1cc(F)c(O)c(O)c1Cl)C2` (stereo partly drawn) [Example 452, (3R)-3-(2-(2-chloro-5-fluoro-3,4-dihydroxyphenyl)-2-(3-(1-((2,4-difluoro-3-hydroxyphenyl)carbamoyl)piperidin-4-yl)-2-oxoimidazolidine-1-carboxamido)acetamido)-7-fluoro-2-hydroxy-3,4-dihydro-2H-benzo[e][1,2]oxaborinine-8-carboxylic acid]: the IC50 in assay [1] was less than 10 µM. Also, the EC50 on A. baumannii PBP1a is 10 to 50 µM. Also, the MIC in assay [2] (iron-depleted CAMHB (IDM), […]) was less than 1 µg/mL; in the assay on A. baumannii CDC-0045 (setting [4]), less than 1 µg/mL.
In the case of `O=C(O)c1cccc2c1OB(O)[C@@H](NC(=O)[C@H](NC(=O)N1CCN(Cc3cc(F)c(O)c(O)c3Cl)C(=O)C1=O)c1ccc(P(=O)(O)O)cc1)C2` [Example 504, (R)-3-((R)-2-(4-(2-chloro-5-fluoro-3,4-dihydroxybenzyl)-2,3-dioxopiperazine-1-carboxamido)-2-(4-phosphonophenyl)acetamido)-2-hydroxy-3,4-dihydro-2H-benzo[e][1,2]oxaborinine-8-carboxylic acid], the EC50 on A. baumannii PBP1a is less than 10 µM. In addition, the MIC (in assay [2]; in the assay on A. baumannii CDC-0045 (setting [5]); in assay [3]) was less than 1 µg/mL in each case.
As to `O=C(O)c1c(F)ccc2c1OB(O)[C@@H](NC(=O)[C@H](NC(=O)N1CCN(S(=O)(=O)c3ccc(O)c(O)c3Cl)C1=O)c1ccc(P(=O)(O)O)cc1)C2` [Example 506, (R)-3-((R)-2-(3-((2-chloro-3,4-dihydroxyphenyl)sulfonyl)-2-oxoimidazolidine-1-carboxamido)-2-(4-phosphonophenyl)acetamido)-7-fluoro-2-hydroxy-3,4-dihydro-2H-benzo[e][1,2]oxaborinine-8-carboxylic acid], the IC50 in assay [1] was less than 10 µM. For the same compound, the MIC is less than 1 µg/mL in assay [2] (iron-depleted CAMHB (IDM), […]); less than 1 µg/mL with A. baumannii CDC-0045 (setting [5]); less than 1 µg/mL in assay [3].
Turning to `O=C(O)c1cccc2c1OB(O)[C@@H](NC(=O)[C@H](NC(=O)N1CCN(S(=O)(=O)c3ccc(O)c(O)c3Cl)C1=O)c1ccc(P(=O)(O)O)cc1)C2` [Example 509, (R)-3-((R)-2-(3-((2-chloro-3,4-dihydroxyphenyl)sulfonyl)-2-oxoimidazolidine-1-carboxamido)-2-(4-phosphonophenyl)acetamido)-2-hydroxy-3,4-dihydro-2H-benzo[e][1,2]oxaborinine-8-carboxylic acid], the IC50 in assay [1] was less than 10 µM. The MIC in assay [2] (iron-depleted CAMHB (IDM), […]) is less than 1 µg/mL; with A. baumannii CDC-0045 (setting [5]) it was less than 1 µg/mL; in assay [3], less than 1 µg/mL.

(Values after patent US20240270762A1, “PENICILLIN-BINDING PROTEIN INHIBITORS” (priority 2021, published 2024).)
